From paper PMC8800111 (The Journal of Biological Chemistry, 2021)

Assays:
Format in all cases: cell-based
[1] = target: proteins of U3A human fibrosarcoma cells (4462 proteins detected) (Homo sapiens, UniProt Q96D46); details: protein NMD3; soluble abundance after heat, U3A cells
[2] = target: proteins of U3A human fibrosarcoma cells (4462 proteins detected) (Homo sapiens, UniProt Q9H8M7); details: protein FAM188A, U3A cells
[3] = target: proteins of U3A human fibrosarcoma cells (4462 proteins detected) (Homo sapiens, UniProt Q8TEP8); details: protein CEP192; U3A, 10 μM, 2 h
[4] = target: proteins of U3A human fibrosarcoma cells (4462 proteins detected) (Homo sapiens, UniProt P22059); details: protein OSBP; soluble abundance after heat, U3A cells
[5] = target: proteins of U3A human fibrosarcoma cells (4462 proteins detected) (Homo sapiens, UniProt O60462); details: protein NRP2; soluble abundance after heat, U3A cells
[6] = target: proteins of U3A human fibrosarcoma cells (4462 proteins detected) (Homo sapiens, UniProt Q9GZQ3); details: protein COMMD5; U3A cells
[7] = target: proteins of U3A human fibrosarcoma cells (4462 proteins detected) (Homo sapiens, UniProt Q8NHQ9); details: protein DDX55; U3A cells
[8] = target: proteins of U3A human fibrosarcoma cells (4462 proteins detected) (Homo sapiens, UniProt Q8IYB8); details: protein SUPV3L1; U3A cells
[9] = target: proteins of U3A human fibrosarcoma cells (4462 proteins detected) (Homo sapiens, UniProt Q9UNM6); details: protein PSMD13; U3A cells
[10] = target: proteins of U3A human fibrosarcoma cells (4462 proteins detected) (Homo sapiens, UniProt O00159); details: protein MYO1C, U3A cells
[11] = target: proteins of U3A human fibrosarcoma cells (4462 proteins detected) (Homo sapiens, UniProt O75937); details: protein DNAJC8, U3A cells
[12] = target: proteins of U3A human fibrosarcoma cells (4462 proteins detected) (Homo sapiens, UniProt Q8TED0); details: protein UTP15; U3A cells
[13] = target: proteins of U3A human fibrosarcoma cells (4462 proteins detected) (Homo sapiens, UniProt Q8N9N2); details: protein ASCC1; U3A cells
[14] = target: proteins of U3A human fibrosarcoma cells (4462 proteins detected) (Homo sapiens, UniProt Q8IW35); details: protein CEP97; U3A, 10 μM, 2 h
[15] = target: proteins of U3A human fibrosarcoma cells (4462 proteins detected) (Homo sapiens, UniProt P18206); details: protein VCL; soluble abundance after heat, U3A cells
[16] = target: proteins of U3A human fibrosarcoma cells (4462 proteins detected) (Homo sapiens, UniProt Q9BWU0); details: protein SLC4A1AP, U3A cells
[17] = target: proteins of U3A human fibrosarcoma cells (4462 proteins detected) (Homo sapiens, UniProt Q9NWV8); details: protein BABAM1; soluble abundance after heat, U3A cells
[18] = target: proteins of U3A human fibrosarcoma cells (4462 proteins detected) (Homo sapiens, UniProt Q9BYG3); details: protein NIFK; soluble abundance after heat, U3A cells
[19] = target: proteins of U3A human fibrosarcoma cells (4462 proteins detected) (Homo sapiens, UniProt O00399); details: protein DCTN6, U3A cells
[20] = target: proteins of U3A human fibrosarcoma cells (4462 proteins detected) (Homo sapiens, UniProt O60749); details: protein SNX2; U3A cells
[21] = target: proteins of U3A human fibrosarcoma cells (4462 proteins detected) (Homo sapiens, UniProt Q14651); details: protein PLS1; U3A cells
[22] = target: proteins of U3A human fibrosarcoma cells (4462 proteins detected) (Homo sapiens, UniProt P04818); details: PISA
[23] = target: proteins of U3A human fibrosarcoma cells (4462 proteins detected) (Homo sapiens, UniProt Q12765); details: protein SCRN1, U3A cells
[24] = target: proteins of U3A human fibrosarcoma cells (4462 proteins detected) (Homo sapiens, UniProt Q8WTT2); details: protein NOC3L; U3A cells
[25] = target: proteins of U3A human fibrosarcoma cells (4462 proteins detected) (Homo sapiens, UniProt P62857); details: protein RPS28, U3A cells
[26] = target: proteins of U3A human fibrosarcoma cells (4462 proteins detected) (Homo sapiens, UniProt O00764); details: protein PDXK, U3A cells
[27] = target: proteins of U3A human fibrosarcoma cells (4462 proteins detected) (Homo sapiens, UniProt Q9H944); details: protein MED20; U3A cells
[28] = target: proteins of U3A human fibrosarcoma cells (4462 proteins detected) (Homo sapiens, UniProt P62805); details: protein HIST1H4A; U3A, 10 μM, 2 h
[29] = target: proteins of U3A human fibrosarcoma cells (4462 proteins detected) (Homo sapiens, UniProt P08670); details: protein VIM; U3A cells
[30] = target: proteins of U3A human fibrosarcoma cells (4462 proteins detected) (Homo sapiens, UniProt Q9Y3B4); details: protein SF3B6; soluble abundance after heat, U3A cells
Chain of proteins of U3A human fibrosarcoma cells (4462 proteins detected) (Homo sapiens, UniProt Q9Y3B4) (Q9Y3B4 whole entry): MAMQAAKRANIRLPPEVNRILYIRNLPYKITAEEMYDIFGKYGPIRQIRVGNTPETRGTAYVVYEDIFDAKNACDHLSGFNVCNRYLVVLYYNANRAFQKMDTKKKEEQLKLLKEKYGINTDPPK

Chain of proteins of U3A human fibrosarcoma cells (4462 proteins detected) (Homo sapiens, UniProt O00399) (O00399 whole entry): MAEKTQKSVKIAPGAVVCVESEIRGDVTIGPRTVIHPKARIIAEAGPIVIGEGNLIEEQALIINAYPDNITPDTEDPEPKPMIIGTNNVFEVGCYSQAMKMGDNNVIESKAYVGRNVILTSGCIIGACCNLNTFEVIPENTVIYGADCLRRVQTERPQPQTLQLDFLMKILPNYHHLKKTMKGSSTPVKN
Chain of proteins of U3A human fibrosarcoma cells (4462 proteins detected) (Homo sapiens, UniProt O60462) (O60462 21-931): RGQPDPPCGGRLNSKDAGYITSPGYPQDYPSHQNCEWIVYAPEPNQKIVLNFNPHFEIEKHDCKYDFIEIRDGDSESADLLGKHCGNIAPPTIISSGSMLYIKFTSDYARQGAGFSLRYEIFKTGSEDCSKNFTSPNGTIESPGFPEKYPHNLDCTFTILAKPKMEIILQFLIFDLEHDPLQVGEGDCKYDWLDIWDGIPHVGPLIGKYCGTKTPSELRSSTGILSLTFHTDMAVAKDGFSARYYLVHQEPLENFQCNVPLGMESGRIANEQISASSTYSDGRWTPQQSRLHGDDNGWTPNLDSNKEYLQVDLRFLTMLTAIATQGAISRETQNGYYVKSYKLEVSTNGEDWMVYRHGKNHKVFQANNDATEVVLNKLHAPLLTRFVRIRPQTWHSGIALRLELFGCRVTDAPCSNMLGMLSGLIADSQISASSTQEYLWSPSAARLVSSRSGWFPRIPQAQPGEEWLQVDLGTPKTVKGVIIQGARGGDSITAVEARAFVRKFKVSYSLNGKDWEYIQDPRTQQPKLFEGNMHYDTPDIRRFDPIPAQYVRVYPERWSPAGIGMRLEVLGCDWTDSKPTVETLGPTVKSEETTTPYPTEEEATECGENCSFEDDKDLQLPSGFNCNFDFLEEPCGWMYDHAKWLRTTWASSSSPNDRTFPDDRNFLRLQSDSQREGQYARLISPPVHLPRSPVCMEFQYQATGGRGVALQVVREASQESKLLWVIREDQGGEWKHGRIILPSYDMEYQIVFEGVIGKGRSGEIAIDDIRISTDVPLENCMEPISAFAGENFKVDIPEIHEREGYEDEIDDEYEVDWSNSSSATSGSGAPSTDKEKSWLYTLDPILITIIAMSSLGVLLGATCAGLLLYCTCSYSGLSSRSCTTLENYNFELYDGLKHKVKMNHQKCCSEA
Chain of proteins of U3A human fibrosarcoma cells (4462 proteins detected) (Homo sapiens, UniProt Q96D46) (Q96D46 whole entry): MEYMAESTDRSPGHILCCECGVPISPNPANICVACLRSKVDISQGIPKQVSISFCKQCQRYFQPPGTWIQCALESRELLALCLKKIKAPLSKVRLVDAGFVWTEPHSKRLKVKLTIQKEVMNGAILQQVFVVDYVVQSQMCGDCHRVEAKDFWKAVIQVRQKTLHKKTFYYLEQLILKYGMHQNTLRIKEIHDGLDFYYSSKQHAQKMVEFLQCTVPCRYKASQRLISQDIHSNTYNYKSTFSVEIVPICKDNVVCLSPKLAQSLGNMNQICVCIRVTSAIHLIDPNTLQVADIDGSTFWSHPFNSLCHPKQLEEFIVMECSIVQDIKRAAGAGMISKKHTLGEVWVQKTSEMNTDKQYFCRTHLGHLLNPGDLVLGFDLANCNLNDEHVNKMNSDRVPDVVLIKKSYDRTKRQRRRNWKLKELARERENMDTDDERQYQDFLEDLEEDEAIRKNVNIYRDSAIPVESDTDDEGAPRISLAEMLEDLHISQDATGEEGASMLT
Chain of proteins of U3A human fibrosarcoma cells (4462 proteins detected) (Homo sapiens, UniProt O00764) (O00764 whole entry): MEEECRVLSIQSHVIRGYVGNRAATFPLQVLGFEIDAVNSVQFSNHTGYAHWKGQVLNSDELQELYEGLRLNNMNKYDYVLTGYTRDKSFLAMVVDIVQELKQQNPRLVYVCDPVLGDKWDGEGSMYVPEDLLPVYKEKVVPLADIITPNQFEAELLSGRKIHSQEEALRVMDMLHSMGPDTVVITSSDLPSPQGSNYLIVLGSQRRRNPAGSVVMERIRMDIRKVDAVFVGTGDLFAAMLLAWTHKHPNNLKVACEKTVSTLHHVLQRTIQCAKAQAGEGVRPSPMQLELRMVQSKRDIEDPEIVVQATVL
Chain of proteins of U3A human fibrosarcoma cells (4462 proteins detected) (Homo sapiens, UniProt Q8IYB8) (Q8IYB8 23-786): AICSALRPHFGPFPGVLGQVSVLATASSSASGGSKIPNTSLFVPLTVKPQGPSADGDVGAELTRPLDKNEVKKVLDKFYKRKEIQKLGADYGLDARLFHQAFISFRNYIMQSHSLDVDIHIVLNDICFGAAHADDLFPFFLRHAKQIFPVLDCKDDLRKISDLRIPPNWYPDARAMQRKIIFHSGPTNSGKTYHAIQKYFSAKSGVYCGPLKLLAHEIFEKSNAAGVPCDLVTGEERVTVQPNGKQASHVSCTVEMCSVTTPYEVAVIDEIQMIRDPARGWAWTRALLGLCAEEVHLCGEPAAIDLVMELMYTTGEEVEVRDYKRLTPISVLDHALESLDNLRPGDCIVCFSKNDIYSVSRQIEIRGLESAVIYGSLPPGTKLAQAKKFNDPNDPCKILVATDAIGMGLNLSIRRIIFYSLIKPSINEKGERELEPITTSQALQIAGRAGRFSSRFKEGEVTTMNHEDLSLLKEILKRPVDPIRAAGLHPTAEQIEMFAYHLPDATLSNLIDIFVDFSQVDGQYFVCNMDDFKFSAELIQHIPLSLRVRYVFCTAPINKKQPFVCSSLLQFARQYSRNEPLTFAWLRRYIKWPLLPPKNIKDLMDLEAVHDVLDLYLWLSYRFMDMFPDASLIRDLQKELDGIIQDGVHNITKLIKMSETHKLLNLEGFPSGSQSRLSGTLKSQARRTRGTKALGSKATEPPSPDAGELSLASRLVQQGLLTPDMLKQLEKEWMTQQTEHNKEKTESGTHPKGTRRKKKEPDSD
Chain of proteins of U3A human fibrosarcoma cells (4462 proteins detected) (Homo sapiens, UniProt P22059) (P22059 whole entry): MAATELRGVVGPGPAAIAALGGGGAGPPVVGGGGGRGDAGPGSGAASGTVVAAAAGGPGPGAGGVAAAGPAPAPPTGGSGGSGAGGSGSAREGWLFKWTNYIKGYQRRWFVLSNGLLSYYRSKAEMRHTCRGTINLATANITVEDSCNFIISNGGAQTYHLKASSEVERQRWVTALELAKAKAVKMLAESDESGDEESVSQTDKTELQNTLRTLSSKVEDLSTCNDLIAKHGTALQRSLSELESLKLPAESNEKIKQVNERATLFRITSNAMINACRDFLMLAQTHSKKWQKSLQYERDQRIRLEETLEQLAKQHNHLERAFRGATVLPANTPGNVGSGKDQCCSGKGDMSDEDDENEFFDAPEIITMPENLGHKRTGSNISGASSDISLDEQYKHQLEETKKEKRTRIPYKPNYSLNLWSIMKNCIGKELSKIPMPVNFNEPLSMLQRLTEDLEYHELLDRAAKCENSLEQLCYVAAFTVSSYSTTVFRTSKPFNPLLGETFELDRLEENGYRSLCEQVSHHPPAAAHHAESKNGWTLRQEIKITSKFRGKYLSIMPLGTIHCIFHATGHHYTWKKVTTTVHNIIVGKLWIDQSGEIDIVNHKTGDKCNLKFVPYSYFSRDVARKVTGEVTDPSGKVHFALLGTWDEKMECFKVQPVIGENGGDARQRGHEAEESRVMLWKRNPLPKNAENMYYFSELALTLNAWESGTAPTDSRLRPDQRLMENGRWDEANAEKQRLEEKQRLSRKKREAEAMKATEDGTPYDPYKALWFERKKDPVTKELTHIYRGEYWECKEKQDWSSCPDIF
Chain of proteins of U3A human fibrosarcoma cells (4462 proteins detected) (Homo sapiens, UniProt Q9H944) (Q9H944 whole entry): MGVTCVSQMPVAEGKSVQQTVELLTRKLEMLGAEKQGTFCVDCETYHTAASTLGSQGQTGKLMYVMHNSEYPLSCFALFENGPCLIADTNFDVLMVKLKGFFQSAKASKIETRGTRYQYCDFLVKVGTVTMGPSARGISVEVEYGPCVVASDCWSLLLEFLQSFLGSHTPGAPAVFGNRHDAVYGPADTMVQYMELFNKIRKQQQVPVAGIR
Chain of proteins of U3A human fibrosarcoma cells (4462 proteins detected) (Homo sapiens, UniProt Q9GZQ3) (Q9GZQ3 whole entry): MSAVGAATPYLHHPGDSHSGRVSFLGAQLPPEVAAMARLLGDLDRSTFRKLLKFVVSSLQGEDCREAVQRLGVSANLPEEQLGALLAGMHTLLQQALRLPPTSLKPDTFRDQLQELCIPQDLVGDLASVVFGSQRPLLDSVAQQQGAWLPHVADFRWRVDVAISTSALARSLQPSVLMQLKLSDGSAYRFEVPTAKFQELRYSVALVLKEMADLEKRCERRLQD
Chain of proteins of U3A human fibrosarcoma cells (4462 proteins detected) (Homo sapiens, UniProt Q9H8M7) (Q9H8M7 whole entry): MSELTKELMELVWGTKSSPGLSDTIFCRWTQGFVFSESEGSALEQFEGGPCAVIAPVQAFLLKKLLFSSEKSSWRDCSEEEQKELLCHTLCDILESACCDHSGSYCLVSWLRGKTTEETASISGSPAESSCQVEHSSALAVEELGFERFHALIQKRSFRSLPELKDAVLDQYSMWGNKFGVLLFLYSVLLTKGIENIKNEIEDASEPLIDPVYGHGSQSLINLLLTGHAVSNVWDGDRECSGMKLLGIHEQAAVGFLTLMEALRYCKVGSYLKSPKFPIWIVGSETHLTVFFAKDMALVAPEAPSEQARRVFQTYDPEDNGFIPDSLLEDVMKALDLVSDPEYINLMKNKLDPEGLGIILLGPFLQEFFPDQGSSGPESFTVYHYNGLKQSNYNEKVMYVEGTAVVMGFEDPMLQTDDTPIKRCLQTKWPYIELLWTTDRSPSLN
Chain of proteins of U3A human fibrosarcoma cells (4462 proteins detected) (Homo sapiens, UniProt Q9BYG3) (Q9BYG3 whole entry): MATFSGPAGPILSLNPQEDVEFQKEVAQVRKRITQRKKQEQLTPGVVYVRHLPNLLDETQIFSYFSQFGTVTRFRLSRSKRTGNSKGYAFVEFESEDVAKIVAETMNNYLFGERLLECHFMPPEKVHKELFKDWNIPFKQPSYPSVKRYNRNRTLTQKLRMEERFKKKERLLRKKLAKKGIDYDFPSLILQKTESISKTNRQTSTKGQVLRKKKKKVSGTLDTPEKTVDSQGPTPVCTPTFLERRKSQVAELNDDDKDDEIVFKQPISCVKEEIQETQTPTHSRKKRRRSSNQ

CCc1nc(N)nc(N)c1-c1ccc(Cl)cc1 [pyrimethamine]
Log2 (PYR/DMSO) [1]: 0.13
Log2 (PYR/DMSO) [2]: -0.04
Log2 (PYR/DMSO), CEP192 [3]: -0.22
Log2 (PYR/DMSO) [4]: 0.14
Log2 (PYR/DMSO) [5]: 0.14
Log2 (PYR/DMSO) [6]: 0.21
Log2 (PYR/DMSO) [7]: 0.23
Log2 (PYR/DMSO) [8]: 0.19
Log2 (PYR/DMSO) [9]: 0.17
Log2 (PYR/DMSO) [10]: -0.03
Log2 (PYR/DMSO) [11]: -0.05
Log2 (PYR/DMSO) [12]: 0.16
Log2 (PYR/DMSO) [13]: 0.19
Log2 (PYR/DMSO), CEP97 [14]: -0.20
Log2 (PYR/DMSO) [15]: 0.15
Log2 (PYR/DMSO) [16]: -0.04
Log2 (PYR/DMSO) [17]: 0.15
Log2 (PYR/DMSO) [18]: 0.14
Log2 (PYR/DMSO) [19]: -0.04
Log2 (PYR/DMSO) [20]: 0.17
Log2 (PYR/DMSO) [21]: 0.17
engagement of TS (thymidylate synthase) [22]: no engagement
Log2 (PYR/DMSO) [23]: -0.04
Log2 (PYR/DMSO) [24]: 0.16
Log2 (PYR/DMSO) [25]: -0.05
Log2 (PYR/DMSO) [26]: -0.05
Log2 (PYR/DMSO) [27]: 0.18
Log2 (PYR/DMSO), HIST1H4A [28]: 0.28
Log2 (PYR/DMSO) [29]: 0.17
Log2 (PYR/DMSO) [30]: 0.14
